Assay results published in patent publication US8461165B2, “2-Substituted phenyl-5,7-dihydrocarbyl-3,7-dihydropyrrolo[2,3-d] pyrimidin-4-one derivatives, the preparation and the pharmaceutical use thereof” (Yangtze River Pharmaceutical (Group) Co., Ltd, priority 2003, dated 2013).
Structures can show the parent of a compound that is named as a salt.

What was measured:
[1] = test system: male rabbit; test: penis erection experiment in conscious male rabbits; type: in vivo; settings: for Length of rabbit penis: conscious rabbits, average of 3 rabbits
Description: (Bischoff E.; Schneider K, International Journal of Impotence Research, 2001, 13, 230 235)
The hydrochloride of 3,7-dihydropyrrolo[2,3-d]pyrimidin-4-one derivatives was dissolved into water, and injected to conscious-rabbits intravenously (i.v.) (0.1 mg-3 mg/kg). Erection was accessed by comparing the length of penis before and at 0, 30, 60, 90 and 120 minutes after intravenous administration of the above-mentioned agents.

[2] = test system: mice; test: acute toxicity in mice; type: in vivo; settings: single dose
Description: Furthermore, none of any obvious sign of adverse acute toxicity is shown for the compounds of this invention tested in rat and dog, both intravenously (i.v.) and orally (p.o.) at up to 3 mg/Kg, has shown. For the situation of mice, no deaths occurred after doses of up to 100 mg/Kg i.v. The LD50 for a single dose of compound I-HCl in mice is 2000 mg/kg.

[3] = target: phosphodiesterase 5 (PDE5) (Homo sapiens, UniProt O76074); test: inhibition of phosphodiesterase 5 (SPA technique); type: biochemical
Description: The bioactivity inhibiting phosphodiesterase 5 (PDE5) of compounds of formula I was measured cross the reference of methods (Hidaka H, et al Biochim. Biochim. Biophys. Acta, 1976, 429, 485; Kim D-K, et al., Bioorg. Med. Chem. 2001, 9, 3013). The inhibiting activity of PDE5 was determined using SPA technique and the method of chemical fluorescence. The method was as follows: firstly, the reaction time curve and the enzyme concentration curve of PDE5 reaction system were determined by Microplate Scintillation & Luminescence Counter (TopCount Counter), by which the optimal reaction condition was determined. Under the optimized conditions, the inhibition experiments on PDE5 were carried out.

[4] = test system: male rats; test: effect of single administration on the coitus function of male rats; type: in vivo, rat; settings: 24 mg/kg oral; for the latent period of straddle / the latent period of the coitus / times of straddle / times of the coitus: single administration, 20 min observation, average ± standard deviation
Description: After purchasing, the male rat and the estrogenized female rat were kept in the same cage for 2 days, and the male rat would acquire the sexual experiences. Then, the female rat was taken out of the cage, and the experiments began after the male rat stayed alone in a cage for 5 days. Each tested compound was orally administered in a dosage of 24 mg/kg, the positive group was administered with Sildenafil citrate (Viagra) in a dosage of 24 mg/kg, and the control group was administered with saline at the equal volume (0.1 ml/10 g). Fifty minutes after administration, the tested male rats were placed within a observation container (both the diameter and the height of the container were 24 cm), and the male rats adapted the new environment for 5 minutes. After that, two estrogenized female rats were placed into the container. The sexual behavior of the male rats in 20 minutes was observed under the non-interfering condition using Panasonic WVCP410/G monitor, the latent period of straddle, times of straddle, as well as the latent period of the coitus and times of the coitus. All the experiments were carried out at 21-24° C., and completed before 11:00 AM. The comparative results among the compounds of the invention, the blank and the positive control drug Sildenafil citrate were listed in Table 2.

[5] = test system: man; settings: cited from earlier work
[6] = 0 min after i.v. administration (0.1 mg-3 mg/kg)
[7] = 30 min after i.v. administration (0.1 mg-3 mg/kg)
[8] = 60 min after i.v. administration (0.1 mg-3 mg/kg)
[9] = 90 min after i.v. administration (0.1 mg-3 mg/kg)
[10] = 120 min after i.v. administration (0.1 mg-3 mg/kg)

CCCn1cc(C)c2c(=O)[nH]c(-c3cc(S(=O)(=O)N4CCN(CC)CC4)ccc3OCC)nc21.Cl.Cl [Compound 1-2HCl, 2-[2-ethoxyl-5-(4-ethylpiperazinyl-1-sulfonyl)phenyl]-5-methyl-7-n-propyl-3,7-dihydropyrrolo[2,3-d]pyrimidin-4-one dihydrochloride]
Length of rabbit penis [1, 6]: 1.3 mm
Length of rabbit penis [1, 7]: 3.0 mm
Length of rabbit penis [1, 8]: 2.0 mm
Length of rabbit penis [1, 9]: 1.0 mm
Length of rabbit penis [1, 10]: 1.0 mm

CCCn1cc(C)c2c(=O)[nH]c(-c3cc(S(=O)(=O)N4CCN(CC)CC4)ccc3OCC)nc21.Cl [Compound 1-HCl, 2-[2-ethoxyl-5-(4-ethylpiperazinyl-1-sulfonyl)phenyl]-5-methyl-7-n-propyl-3,7-dihydropyrrolo[2,3-d]pyrimidin-4-one monohydrochloride]
Length of rabbit penis [1, 6]: 8.3 mm
Length of rabbit penis [1, 7]: 5.7 mm
Length of rabbit penis [1, 8]: 5.3 mm
Length of rabbit penis [1, 9]: 2.0 mm
Length of rabbit penis [1, 10]: 1.3 mm
potential in treatment of functional erectile dysfunction (in words) ([1]; rabbit penis erection, i.v.): quick onset and prolonged effectiveness
LD50 [2]: 2000 mg/kg
inhibiting rate on PDE5 ([3]; concentration 10^−8 mol/L): 65.62%
effect on sexual function compared with Sildenafil citrate ([4]; both groups): stronger than that of the Sildenafil citrate group
the latent period of straddle [4]: 2.6 ± 1.13 min
the latent period of the coitus [4]: 7.1 ± 5.62 min
times of straddle [4]: 7.6 ± 2.70
times of the coitus [4]: 13.1 ± 8.77
times of the coitus compared with positive control group ([4]; versus Sildenafil citrate, p<0.05): much more than that of the positive control group
indexes of sexual function of the rats (in words) ([4]; versus saline): obviously enhanced
latent period of coitus (in words) ([4]; versus saline): remarkably shortened
latent period of straddle (in words) ([4]; versus saline): remarkably shortened
times of the coitus (in words) ([4]; versus saline): obviously increased

CCCn1cc(C)c2c(=O)[nH]c(-c3cc(S(=O)(=O)N4CCN(C)CC4)ccc3OCC)nc21.Cl [Compound 6-2HCl, 2-[2-ethoxyl-5-(4-methylpiperazinyl-1-sulfonyl)phenyl]-5-methyl-7-n-propyl-3,7-dihydropyrrolo[2,3-d]pyrimidin-4-one]
Length of rabbit penis [1, 6]: 0.0 mm
Length of rabbit penis [1, 7]: 5.3 mm
Length of rabbit penis [1, 8]: 2.7 mm
Length of rabbit penis [1, 9]: 1.7 mm
Length of rabbit penis [1, 10]: 0.0 mm

CCCn1cc(C)c2c(=O)[nH]c(-c3cc(S(=O)(=O)N4CCN(C)CC4)ccc3OCC)nc21.Cl [Compound 6-HCl, 2-[2-ethoxyl-5-(4-methylpiperazinyl-1-sulfonyl)phenyl]-5-methyl-7-n-propyl-3,7-dihydropyrrolo[2,3-d]pyrimidin-4-one]
the latent period of straddle [4]: 6.4 ± 3.07 min
the latent period of the coitus [4]: 8.8 ± 5.85 min
times of straddle [4]: 8.0 ± 3.93
times of the coitus [4]: 9.0 ± 8.50
latent period of coitus compared with positive control group ([4]; versus Sildenafil citrate): remarkably shorter than that of the positive control group
indexes of sexual function of the rats (in words) ([4]; versus saline): obviously enhanced

CCCn1cc(C)c2c(=O)[nH]c(-c3cc(S(=O)(=O)N4CCN(C(=O)OCC)CC4)ccc3OCC)nc21.Cl.Cl [Compound 8-2HCl, 2-[2-ethoxyl-5-(4-ethoxylcarbonylpiperazinyl-1-sulfonyl)phenyl]-5-methyl-7-n-propyl-3,7-dihydropyrrolo[2,3-d]pyrimidin-4-one]
Length of rabbit penis [1, 6]: 2.7 mm
Length of rabbit penis [1, 7]: 1.7 mm
Length of rabbit penis [1, 8]: 1.3 mm
Length of rabbit penis [1, 9]: 0.7 mm
Length of rabbit penis [1, 10]: 0.0 mm

CCCn1cc(C)c2c(=O)[nH]c(-c3cc(S(=O)(=O)N4CCN(Cc5ccccc5)CC4)ccc3OCC)nc21.Cl.Cl [Compound 19-2HCl, 2-[2-ethoxyl-5-(4-benzylpiperazinyl-1-sulfonyl)phenyl]-5-methyl-7-n-propyl-3,7-dihydropyrrolo[2,3-d]pyrimidin-4-one]
Length of rabbit penis [1, 6]: 1.7 mm
Length of rabbit penis [1, 7]: 4.0 mm
Length of rabbit penis [1, 8]: 4.3 mm
Length of rabbit penis [1, 9]: 4.0 mm
Length of rabbit penis [1, 10]: 0.0 mm

CCCc1nn(C)c2c(=O)[nH]c(-c3cc(S(=O)(=O)N4CCN(C)CC4)ccc3OCC)nc12 [Sildenafil citrate, reference compound]
the latent period of straddle [4]: 5.0 ± 4.74 min
the latent period of the coitus [4]: 8.2 ± 4.02 min
times of straddle [4]: 12.7 ± 7.18
times of the coitus [4]: 8.2 ± 5.25

CCCc1nn(C)c2c(=O)[nH]c(-c3cc(S(=O)(=O)N4CCN(C)CC4)ccc3OCC)nc12 [sildenafil, reference compound]
inhibition at 0.01 µM ([3]; read-out: inhibiting rate on PDE5): 31.7%
effective rates in treating male sexual organs erectile dysfunction [5]: 80%
